Data from patent publication US9790228B2, “Heterocyclic kinase inhibitors” (Intellikine LLC, priority 2008, dated 2017).

Legend:
lupus disease model mice = conditions: B6.Slelz.Sle3z model; cited from earlier work
[1] = control compound, 5 μM; cited from earlier work
PI3K/Akt/mTor signaling = assay: Kinase signaling in blood (phosflow); format: cell-based; conditions: anti-CD3 stimulated splenocytes or PBMC
Description: PI3K/Akt/mTor signaling is measured in blood cells using the phosflow method (Methods Enzymol. 2007; 434:131-54). The advantage of this method is that it is by nature a single cell assay so that cellular heterogeneity can be detected rather than population averages. This allows concurrent distinction of signaling states in different populations defined by other markers. Phosflow is also highly quantitative. To test the effects of one or more compounds disclosed herein, unfractionated splenocytes, or peripheral blood mononuclear cells are stimulated with anti-CD3 to initiate T-cell receptor signaling. The cells are then fixed and stained for surface markers and intracellular phosphoproteins.
Similarly, aliquots of whole blood are incubated for 15 minutes with vehicle (e.g. 0.1% DMSO) or kinase inhibitors at various concentrations, before addition of stimuli to crosslink the T cell receptor (TCR) (anti-CD3 with secondary antibody) or the B cell receptor (BCR) using anti-kappa light chain antibody (Fab′2 fragments). After approximately 5 and 15 minutes, samples are fixed (e.g. with cold 4% paraformaldehyde) and used for phosflow. […] The level of phosphrylation of kinase substrates such as Akt and S6 are then measured by incubating the fixed cells with labeled antibodies specific to the phosphorylated isoforms of these proteins. The population of cells are then analyzed by flow cytometry.

[2] = PBS pH 7.4, 24 hours, 37° C.; cited from earlier work
Balb/c splenic B cells = assay: B cell activation and proliferation assay (Alamar Blue); format: cell-based, mouse; conditions: Mus musculus, B-cell
In short: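 Purified Balb/c splenic B cells, 50,000/well, pretreated with compound 30 min (0.2% DMSO), then stimulated with 10 ug/ml LPS or 5 ug/ml anti-IgM F(ab′)2 plus 2 ng/ml IL4 (cocktail concentrations) for 72 h at 37 °C. Alamar Blue 5 h, fluorescence 560/590 nm; IC50/EC50 calculated.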

p110α/p85α = p110α/p85α (Homo sapiens (Human), UniProt P42336); assay: PI3K α inhibition assay (TLC lipid kinase or HTRF); format: biochemical
Chain of p110α/p85α (P42336 whole entry): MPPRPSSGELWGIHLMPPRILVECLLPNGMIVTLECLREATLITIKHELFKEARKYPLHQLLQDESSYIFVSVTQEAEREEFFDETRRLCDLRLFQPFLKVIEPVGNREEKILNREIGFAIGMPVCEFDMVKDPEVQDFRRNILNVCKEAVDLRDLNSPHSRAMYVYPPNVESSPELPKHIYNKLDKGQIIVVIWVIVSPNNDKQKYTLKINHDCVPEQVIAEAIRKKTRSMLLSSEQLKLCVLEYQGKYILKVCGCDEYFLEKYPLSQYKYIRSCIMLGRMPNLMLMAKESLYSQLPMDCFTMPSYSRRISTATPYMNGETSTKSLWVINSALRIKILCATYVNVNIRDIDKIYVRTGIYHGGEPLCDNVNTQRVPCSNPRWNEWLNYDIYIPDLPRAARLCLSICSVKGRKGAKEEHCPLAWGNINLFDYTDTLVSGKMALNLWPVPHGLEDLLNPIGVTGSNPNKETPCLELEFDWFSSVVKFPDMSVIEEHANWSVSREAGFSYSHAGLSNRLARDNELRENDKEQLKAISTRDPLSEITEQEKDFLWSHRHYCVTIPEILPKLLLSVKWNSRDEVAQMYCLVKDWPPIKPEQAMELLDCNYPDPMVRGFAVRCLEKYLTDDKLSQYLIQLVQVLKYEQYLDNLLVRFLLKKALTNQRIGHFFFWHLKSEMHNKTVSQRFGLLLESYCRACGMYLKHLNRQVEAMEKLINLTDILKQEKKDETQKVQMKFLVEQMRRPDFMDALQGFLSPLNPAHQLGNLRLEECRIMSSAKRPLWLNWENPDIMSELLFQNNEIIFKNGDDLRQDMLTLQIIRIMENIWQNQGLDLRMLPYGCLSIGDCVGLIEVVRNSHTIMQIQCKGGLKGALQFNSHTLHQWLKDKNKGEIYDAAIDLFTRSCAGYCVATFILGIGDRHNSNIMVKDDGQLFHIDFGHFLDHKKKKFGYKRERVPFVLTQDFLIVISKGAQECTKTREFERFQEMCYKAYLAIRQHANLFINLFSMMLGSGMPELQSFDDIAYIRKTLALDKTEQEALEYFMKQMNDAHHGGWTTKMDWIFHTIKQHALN
Chain of p110α/p85α (P27986 whole entry partner): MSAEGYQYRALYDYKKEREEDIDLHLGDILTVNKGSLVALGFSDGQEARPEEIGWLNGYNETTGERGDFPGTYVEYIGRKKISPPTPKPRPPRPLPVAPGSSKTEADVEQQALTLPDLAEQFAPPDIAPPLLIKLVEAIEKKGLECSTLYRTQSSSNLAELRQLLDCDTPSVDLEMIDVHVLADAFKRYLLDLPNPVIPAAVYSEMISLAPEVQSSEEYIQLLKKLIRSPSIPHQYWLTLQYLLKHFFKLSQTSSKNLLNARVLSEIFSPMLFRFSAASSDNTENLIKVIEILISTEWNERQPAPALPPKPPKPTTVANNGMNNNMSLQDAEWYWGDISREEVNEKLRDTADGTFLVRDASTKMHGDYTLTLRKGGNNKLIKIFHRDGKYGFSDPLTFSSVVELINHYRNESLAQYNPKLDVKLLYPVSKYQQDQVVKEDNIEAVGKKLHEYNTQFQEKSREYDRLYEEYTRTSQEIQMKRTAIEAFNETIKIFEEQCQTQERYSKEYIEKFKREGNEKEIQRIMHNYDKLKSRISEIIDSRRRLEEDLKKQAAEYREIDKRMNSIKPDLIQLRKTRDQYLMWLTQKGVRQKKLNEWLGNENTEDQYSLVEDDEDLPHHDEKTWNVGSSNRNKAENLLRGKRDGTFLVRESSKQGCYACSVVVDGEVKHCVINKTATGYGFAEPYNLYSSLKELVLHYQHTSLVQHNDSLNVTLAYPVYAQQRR
In short: (§1)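 IC50 from TLC lipid kinase assay (25 mM HEPES pH 7.4, 10 mM MgCl2, 100 μg/ml phosphatidylinositol, 10 or 100 μM γ-32P-ATP, 5 min RT, phosphorimager) at 10–12 two-fold dilutions, or HTRF (10 μM PIP2, 10 μM ATP, 1 h RT) measuring PIP3 by TR-FRET; 2% DMSO final.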

p110δ/p85α = p110δ/p85α (Homo sapiens (Human), UniProt O00329); assay: PI3K δ inhibition assay (TLC lipid kinase or HTRF); format: biochemical
Chain of p110δ/p85α (O00329 whole entry): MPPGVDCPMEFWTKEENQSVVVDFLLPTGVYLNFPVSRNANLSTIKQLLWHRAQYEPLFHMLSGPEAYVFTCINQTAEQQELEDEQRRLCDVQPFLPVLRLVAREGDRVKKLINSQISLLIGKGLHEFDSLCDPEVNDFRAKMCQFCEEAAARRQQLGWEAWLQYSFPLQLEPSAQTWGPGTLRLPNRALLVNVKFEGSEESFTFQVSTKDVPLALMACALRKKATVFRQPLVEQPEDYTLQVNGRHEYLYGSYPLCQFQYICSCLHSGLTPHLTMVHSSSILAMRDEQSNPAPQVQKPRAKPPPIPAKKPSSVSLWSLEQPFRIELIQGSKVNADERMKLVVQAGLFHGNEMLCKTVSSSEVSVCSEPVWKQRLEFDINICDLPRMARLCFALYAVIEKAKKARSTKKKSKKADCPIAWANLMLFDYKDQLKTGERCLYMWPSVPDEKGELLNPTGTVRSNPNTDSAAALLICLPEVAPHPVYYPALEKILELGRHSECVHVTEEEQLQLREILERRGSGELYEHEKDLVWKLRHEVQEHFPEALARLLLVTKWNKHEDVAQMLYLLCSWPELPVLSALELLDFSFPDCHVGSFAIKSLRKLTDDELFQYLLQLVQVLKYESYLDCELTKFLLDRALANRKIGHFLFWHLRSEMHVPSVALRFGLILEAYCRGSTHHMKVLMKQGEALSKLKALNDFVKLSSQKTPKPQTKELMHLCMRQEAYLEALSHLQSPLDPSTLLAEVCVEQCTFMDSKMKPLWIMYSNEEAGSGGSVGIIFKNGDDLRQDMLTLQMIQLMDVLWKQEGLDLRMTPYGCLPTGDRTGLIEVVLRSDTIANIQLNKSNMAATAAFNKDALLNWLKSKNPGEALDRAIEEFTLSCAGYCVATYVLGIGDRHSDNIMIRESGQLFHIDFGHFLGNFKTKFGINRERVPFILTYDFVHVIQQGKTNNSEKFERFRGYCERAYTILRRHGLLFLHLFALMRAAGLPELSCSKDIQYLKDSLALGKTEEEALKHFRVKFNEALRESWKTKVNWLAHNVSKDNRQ
Chain of p110δ/p85α (P27986 whole entry partner): as the sequence (P27986 whole entry partner) above
In short: as §1

p110β/p85α = p110β/p85α (Homo sapiens, UniProt P42338); assay: PI3K β inhibition assay (TLC lipid kinase or HTRF); format: biochemical; conditions: read-out: PI3K β IC50
Chain of p110β/p85α (P42338 whole entry, looked up): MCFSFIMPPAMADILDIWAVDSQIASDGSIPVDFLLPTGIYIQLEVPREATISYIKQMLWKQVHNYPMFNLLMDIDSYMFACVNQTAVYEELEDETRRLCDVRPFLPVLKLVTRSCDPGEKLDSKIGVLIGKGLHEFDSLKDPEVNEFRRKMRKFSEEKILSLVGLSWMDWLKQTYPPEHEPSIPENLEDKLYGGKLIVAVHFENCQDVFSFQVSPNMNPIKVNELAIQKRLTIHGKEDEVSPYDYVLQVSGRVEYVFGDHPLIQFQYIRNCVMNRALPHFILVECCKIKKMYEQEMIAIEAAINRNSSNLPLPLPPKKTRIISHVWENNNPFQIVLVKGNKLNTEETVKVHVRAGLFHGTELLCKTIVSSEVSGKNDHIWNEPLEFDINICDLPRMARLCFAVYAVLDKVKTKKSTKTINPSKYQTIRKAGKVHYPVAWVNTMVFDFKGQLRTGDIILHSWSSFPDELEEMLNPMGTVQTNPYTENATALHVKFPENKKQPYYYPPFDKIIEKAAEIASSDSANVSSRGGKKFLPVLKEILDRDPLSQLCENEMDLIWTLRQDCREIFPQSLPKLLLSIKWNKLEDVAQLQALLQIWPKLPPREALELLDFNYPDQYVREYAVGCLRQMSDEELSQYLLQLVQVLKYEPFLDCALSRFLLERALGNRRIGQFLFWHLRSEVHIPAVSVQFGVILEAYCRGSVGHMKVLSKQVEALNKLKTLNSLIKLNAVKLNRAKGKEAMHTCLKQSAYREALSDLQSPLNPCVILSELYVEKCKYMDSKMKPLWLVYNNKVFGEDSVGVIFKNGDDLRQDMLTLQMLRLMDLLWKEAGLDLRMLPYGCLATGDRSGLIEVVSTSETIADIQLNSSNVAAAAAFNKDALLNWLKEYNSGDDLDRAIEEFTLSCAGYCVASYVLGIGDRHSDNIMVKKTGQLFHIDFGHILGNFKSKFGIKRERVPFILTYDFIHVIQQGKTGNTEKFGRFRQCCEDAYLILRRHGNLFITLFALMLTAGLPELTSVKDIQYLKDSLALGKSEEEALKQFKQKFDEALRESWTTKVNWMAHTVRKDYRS
In short: as §1

p110γ = p110γ (Homo sapiens (Human), UniProt P48736); assay: PI3K γ inhibition assay (TLC lipid kinase or HTRF); format: biochemical
Chain of p110γ (P48736 whole entry): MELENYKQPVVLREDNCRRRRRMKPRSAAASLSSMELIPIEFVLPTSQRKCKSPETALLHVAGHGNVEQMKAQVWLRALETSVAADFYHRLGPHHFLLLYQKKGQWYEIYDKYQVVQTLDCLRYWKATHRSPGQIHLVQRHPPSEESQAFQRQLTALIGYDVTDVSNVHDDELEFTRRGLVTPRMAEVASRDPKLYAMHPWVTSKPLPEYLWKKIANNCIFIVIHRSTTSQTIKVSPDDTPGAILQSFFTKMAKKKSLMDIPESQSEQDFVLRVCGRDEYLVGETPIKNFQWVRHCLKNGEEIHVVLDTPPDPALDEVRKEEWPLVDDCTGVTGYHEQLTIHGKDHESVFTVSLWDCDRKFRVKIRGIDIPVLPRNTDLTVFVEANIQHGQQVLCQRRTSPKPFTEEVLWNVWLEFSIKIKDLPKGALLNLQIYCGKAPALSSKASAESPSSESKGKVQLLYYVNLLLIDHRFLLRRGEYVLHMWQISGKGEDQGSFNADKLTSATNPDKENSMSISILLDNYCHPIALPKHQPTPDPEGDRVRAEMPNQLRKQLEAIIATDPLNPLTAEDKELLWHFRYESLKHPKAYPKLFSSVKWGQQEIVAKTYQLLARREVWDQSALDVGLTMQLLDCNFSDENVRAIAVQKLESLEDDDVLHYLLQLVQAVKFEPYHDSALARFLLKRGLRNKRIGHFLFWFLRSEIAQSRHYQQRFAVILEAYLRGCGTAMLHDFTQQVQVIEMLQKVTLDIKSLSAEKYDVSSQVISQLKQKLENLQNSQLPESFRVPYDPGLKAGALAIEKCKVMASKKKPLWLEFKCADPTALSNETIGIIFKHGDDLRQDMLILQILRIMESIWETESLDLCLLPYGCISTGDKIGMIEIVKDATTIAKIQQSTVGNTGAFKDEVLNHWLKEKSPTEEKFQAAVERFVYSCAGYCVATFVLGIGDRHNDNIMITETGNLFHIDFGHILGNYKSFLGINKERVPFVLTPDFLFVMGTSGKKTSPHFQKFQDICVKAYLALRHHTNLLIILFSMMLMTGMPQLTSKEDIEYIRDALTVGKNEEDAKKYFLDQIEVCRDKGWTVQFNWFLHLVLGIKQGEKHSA
In short: as §1

Row | Akt phosphorylation (PI3K/Akt/mTor signaling) | S6 phosphorylation (PI3K/Akt/mTor signaling) | IC50 (p110α/p85α) [nM] | IC50 (p110δ/p85α) [nM] | IC50 (p110β/p85α) [nM] | IC50 (p110γ) [nM] | SMILES | lupus symptoms (lupus disease model mice) | plasma stability [1] | chemical stability [2] | EC50 (Balb/c splenic B cells) [nM]
1 |  |  |  |  |  |  | CO[C@H]1C[C@@H]2CC[C@@H](C)[C@@](O)(O2)C(=O)C(=O)N2CCCC[C@H]2C(=O)O[C@H]([C@H](C)C[C@@H]2CC[C@@H](OCCO)[C@H](OC)C2)CC(=O)[C@H](C)/C=C(\C)[C@@H](O)[C@@H](OC)C(=O)[C@H](C)C[C@H](C)/C=C/C=C/C=C/1C [RAD001] | ameliorate lupus symptoms |  |  | 
2 |  |  |  |  |  |  | CC(C)[N+](C)(CCOC(=O)C1c2ccccc2Oc2ccccc21)C(C)C [propantheline] |  | intermediate |  | 
3 | enhances Akt phosphorylation | inhibits S6 phosphorylation |  |  |  |  | CO[C@H]1C[C@@H]2CC[C@@H](C)[C@@](O)(O2)C(=O)C(=O)N2CCCC[C@H]2C(=O)O[C@H]([C@H](C)C[C@@H]2CC[C@@H](O)[C@H](OC)C2)CC(=O)[C@H](C)/C=C(\C)[C@@H](O)[C@@H](OC)C(=O)[C@H](C)C[C@H](C)/C=C/C=C/C=C/1C [rapamycin] |  |  |  | 
4 |  |  |  |  |  |  | O=C(O)CCCc1ccc(N(CCCl)CCCl)cc1 [chlorambucil] |  |  | largely hydrolyzed | 
5 |  |  | > 1000 | < 100 | 100 to 1000 | > 1000 | Nc1ncnc2c1c(-c1cc(O)cc(F)c1)nn2Cc1cc2ccccc2nc1CCN1CCCC1 [Compound 165] |  |  |  | < 100
6 |  |  | > 1000 | < 100 | > 1000 | > 1000 | Nc1ncnc2c1c(-c1ccc3cn[nH]c3c1)nn2CC1=Cc2ccccc2NC1N1CCCC1 (stereo not shown) [Compound 81] |  |  |  | 100 to 1000
7 |  |  | > 1000 | < 100 | > 1000 | < 100 | Cc1ccccc1-c1nc2c(C)cccc2cc1Cn1nc(I)c2c(N)ncnc21 [Compound 7] |  |  |  | 100 to 1000
8 |  |  | > 1000 | < 100 | > 1000 | < 100 | Nc1nc2cc(-c3nn(Cc4cc5ccccc5nc4-c4ccccc4F)c4ncnc(N)c34)ccc2o1 [Compound 137] |  |  |  | 100 to 1000
9 |  |  | > 1000 | < 100 | > 1000 | > 1000 | Nc1ncnc2c1c(-c1cc(O)cc(F)c1)nn2Cc1cc2ccccc2nc1NCCN1CCOCC1 [Compound 75] |  |  |  | < 100
10 |  |  | > 1000 | < 100 | 100 to 1000 | 100 to 1000 | CCN(CC)c1nc2ccccc2cc1Cn1nc(-c2cc(O)cc(F)c2)c2c(N)ncnc21 [Compound 68] |  |  |  | < 100
11 |  |  | > 1000 | < 100 | > 1000 | < 100 | Nc1nc2cc(-c3nn(Cc4cc5ccccc5nc4-c4ccccc4)c4ncnc(N)c34)ccc2o1 [Compound 145] |  |  |  | < 100
12 |  |  | > 1000 | < 100 | > 1000 | 100 to 1000 | Cc1ccccc1-c1nc2ccccc2cc1Cn1nc(I)c2c(N)ncnc21 [Compound 3] |  |  |  | 100 to 1000
13 |  |  | > 1000 | < 100 | > 1000 | > 1000 | Cc1ccncc1-c1nc2ccccc2cc1Cn1nc(-c2cccc(O)c2)c2c(N)ncnc21 [Compound 78] |  |  |  | 100 to 1000
14 |  |  |  |  |  |  | CCCOc1cc(N)ccc1C(=O)OCCN(CC)CC [propoxycaine] |  | low |  | 
15 |  |  | > 1000 | < 100 | > 1000 | 100 to 1000 | Nc1ncnc2c1c(-c1cc(O)cc(F)c1)nn2Cc1cc2ccccc2nc1-c1cccnc1 [Compound 55] |  |  |  | < 100
16 |  |  | > 1000 | 100 to 1000 | > 1000 | > 1000 | Nc1ncnc2c1c(-c1cnn(CCO)c1)nn2Cc1cc2ccccc2nc1-c1ccccc1 [Compound 179] |  |  |  | 100 to 1000
